Reference: patent US20240000791A1, “Methods of Using 4-Amino-N-[4-(Methoxymethyl)Phenyl]-7-(1-Methylcyclopropyl)-6-(3-Morpholinoprop-1-YN-1-YL)-7H-Pyrrolo[2,3-D]Pyrimidine-5-Carboxamide for the Treatment of Tumors” (Helsinn Healthcare SA, priority 2020, published 2024)

Experiments:
[1] = Proconvulsant and anticonvulsant effects (pentylenetetrazole)
[2] = CNS symptoms and neurotoxicity (Fluoro-Jade C, ATF3) in dog toxicity studies; assay type: in vivo
Description: In order to evaluate the potential neurotoxic effect of HM06-01, Fluoro-Jade C staining was performed on nine different brain areas (i.e., frontal pole, optic chiasm, infundibulum, mammillary bodies, base of third cranial nerve, anterior portion of pons and occipital pole section, cerebellum and medulla oblongata) of control dogs and dogs treated with 45 mg/kg BID HM06-01/TAS0953-01 (samples were taken from the 2-week toxicity study in dogs). In addition, ATF3 immunostaining was performed only on one control and one high dose dog treated with 45 mg/kg BID, in order to validate with an alternative method, the absence of any signs of neuronal degeneration or suffering.

[3] = 4-week GLP toxicity study in rat; assay type: in vivo; settings: for AUC(0-t): 50 mg/kg, 50 mg/kg BID
Description: In the 4-week GLP toxicity study in rat, animals received 0, 25, 50, and 90 mg/kg BID HM06-01/TAS0953-01 by oral gavage. In the high dose of 90 mg/kg BID group, test item-related mortality was observed: 3 females were found dead or were prematurely sacrificed for ethical reasons (severe clinical signs like decreased activity, abnormal respiratory rate and erected fur) from Day 10 to Day 14. At necropsy, discolorations of the lungs were generally observed, histologically correlated with adverse moderate to marked inflammatory changes in the lungs (alveolar/perivascular inflammation, macrophages aggregates, alveolar oedema/hemorrhage). One additional female (satellite) was found dead on Day 7 before dosing. However, in absence of clinical sign and of abnormality at necropsy, the relationship with the test item administration was considered doubtful.

[4] = ECG, 4-week toxicology GLP study; assay type: in vivo, dog
Description: The effect of HM06-01/TAS0953-01 on the ECG was also investigated in the 4-week toxicology GLP study in dog as described above (and further described in Example 8) on week 1 (Day 2), week 4 (Day 23) and at the end of the 2-week recovery period. […] Whereas, on Day 23, no test item-related effects were noted on electrocardiographic parameters at 15 and 30 mg/kg BID in males. […] These electrocardiographic effects were no longer observed at the end of the 2 week recovery period. In addition, there were no abnormalities in electrocardiogram rhythm and waveforms on Day 2 and Day 23, and at the end of the recovery period.

[5] = 4-week GLP toxicity study in dog; assay type: in vivo; settings: for AUC(0-t): beagle, dog, in vivo, po, 30 mg/kg, 30 mg/kg BID
Description: In the 4-week GLP toxicity study in dog, animals received 0, 15, 30, and 45 mg/kg BID HM06-01/TAS0953-01 by oral gavage for 4 consecutive weeks followed by 2-week recovery period. In the high dose of 45 mg/kg BID group, test item-related mortality was observed: 2 males were prematurely sacrificed on Day 17 and Day 18 for ethical reasons (severe clinical signs associated with a significant body weight loss). The main cause of death was the mild to moderate multifocal subacute inflammation with alveolar or bronchioalveolar distribution, accompanied in one male with alveolar foreign body granulomas. In the other male, minimal pancreatic acinar vacuolation/apoptosis with prostatic acinar apoptosis were noted, for which the relationship with test item cannot be excluded.

[6] = ECG and blood pressure, 2-week toxicology GLP study; assay type: in vivo, dog; settings: for mean arterial blood pressure: high dose females
Description: The effect of HM06-01/TAS0953-01 on the ECG was investigated in the 2-week toxicology GLP study in dog as described above on Day 12. […] Heart rate and ECG were also not affected at all dose levels tested. […] At +8 h, arterial blood pressure had returned to control/baseline levels. Although this decrease was not statistically significant versus control, it was consistent and noticeable enough to be considered test item related. Nevertheless, since the extent of the change was limited and present only in the high dose females, and as this decrease in blood pressure had no negative impact on the animals' health, it was considered as non-adverse.

[7] = Respiratory system, 4-week GLP study; assay type: in vivo, rat; settings: 25, 50 and 90 mg/kg BID, week 4
Description: The effect of HM06-01/TAS0953-01 on the respiratory system was also investigated after repeated administration with HM06-01/TAS0953-01 at 25, 50 and 90 mg/kg BID in the 4-week GLP study in rats further described in Example 8. Each group comprised 5 animals/group/sex.

[8] = tested on: cell line from a patient who acquired resistance to RXDX-105 (KIF5B-RET fusion); experiment: Growth inhibition, RXDX-105-resistant cell line; assay type: cell-based; settings: Homo sapiens; RXDX-105-resistant, KIF5B-RET; read-out: IC50 growth inhibition

## COCc1ccc(NC(=O)c2c(C#CCN3CCOCC3)n(C3(C)CC3)c3ncnc(N)c23)cc1 [HM06-01/TAS0953-01, 4-amino-N-(4-(methoxymethyl)phenyl)-7-(1-methylcyclopropyl)-6-(3-morpholinoprop-1-yn-1-yl)-7H-pyrrolo[2,3-d]pyrimidine-5-carboxamide]
[1]; 30, 100 and 200 mg/kg oral, 1 hour prior to 25 mg/kg PTZ
  proconvulsant activity: did not demonstrate any proconvulsant activity
[1]; 100 and 200 mg/kg oral, pentylenetetrazole
  anticonvulsant effect, total number of convulsions: decrease in the total number of convulsions
[2]; 45 mg/kg BID, 2-week toxicity study, brain areas
  neuronal degeneration (Fluoro-Jade C, ATF3): no evidence of any neuronal degeneration
[2]; after the first administration in PK studies
  dose at which CNS symptoms were seen: ≥ 5 mg/kg BID
[2]; after the first daily dose, routine clinical observations, 2-week and 4-week toxicity studies
  dose at which CNS symptoms were seen: ≥ 15 mg/kg BID
[3]; 90 mg/kg BID, Day 10 to Day 14
  test item-related mortality: 3 females
[3]; 90 mg/kg BID, both sexes
  decrease of body weight: 10%
[3]; 4-week, oral gavage
  severely toxic dose 10 (STD 10): 50 mg/kg BID
[3]; 4 weeks oral BID
  ophthalmology: no change in ophthalmology
[3]; 25-90 mg/kg BID
  systemic exposure vs dose: approximately dose proportional manner
[3]; 25 and 50 mg/kg BID
  body weight: no effect on body weight
[3]; Day 28
  systemic accumulation: no systemic accumulation
[3]; both sexes
  clinical chemistry, AST and ALT: dose-dependent increase in AST and ALT
  hematology, reticulocytes: dose-dependent increase in reticulocytes
  urine protein concentration: dose-dependent increase in urine protein concentration
[3]; end of dosing period
  microscopic findings: inflammatory microscopic findings were noted in the lungs
[3]; female, rat, in vivo, po, Day 1, females
  AUC(0-t): 37.2 µg·h/mL
[3]; female, rat, in vivo, po, Day 28, females
  AUC(0-t): 74.3 µg·h/mL
[3]; male, rat, in vivo, po, Day 1, males
  AUC(0-t): 50.3 µg·h/mL
[3]; male, rat, in vivo, po, Day 28, males
  AUC(0-t): 73 µg·h/mL
[3]; rat, in vivo, po, Day 1, after the first daily dose
  Tmax: 7 h
[3]; rat, in vivo, po, Day 28, after the first daily dose
  Tmax: 1 h
[3]; rat, in vivo, po, after the second daily dose, when estimable
  half-life: 2.03 to 3.67 h
[4]; Day 2, two hours after second daily dose, 15, 30 and 45 mg/kg BID
  ECG effects: no effects
[4]; Day 23, females, 15, 30 and 45 mg/kg
  prolongation of Fridericia and Van der Water corrected QTc interval versus control: up to 8%
[4]; Day 23, males, 45 mg/kg BID
  heart rate: slight increase in heart rate
[5]; 45 mg/kg BID, Day 17 and Day 18
  test item-related mortality: 2 males
[5]; 45 mg/kg BID, Male No. 642, day 17
  body weight loss: −12%
[5]; 45 mg/kg BID, Male No. 644, day 15
  body weight loss: −25%
[5]; 4-week, oral gavage
  highest non severely toxic dose (HNSTD): 30 mg/kg BID
[5]; 4 weeks oral BID
  ophthalmology, urinalysis, coagulation, clinical chemistry: no change in ophthalmology, urinalysis and on coagulation and clinical chemistry parameters
[5]; both sexes
  hematology, total white blood cell count: increase in total white blood cell count
[5]; end of dosing period
  microscopic findings: inflammatory microscopic findings in the lungs
[5]; female, Day 1, females
  AUC(0-t): 29.2 µg·h/mL
[5]; female, Day 28, females
  AUC(0-t): 29.1 µg·h/mL
[5]; from Day 1
  dose at which test item-related clinical signs were noted: ≥ 15 mg/kg BID
[5]; low dose
  body weight: no effect on body weight
[5]; male, Day 1, males
  AUC(0-t): 21.4 µg·h/mL
[5]; male, Day 28, males
  AUC(0-t): 22.3 µg·h/mL
[6]; 15, 30 and 45 mg/kg BID, Day 12
  QT prolongation: No evidence of QT prolongation
[6]; all dose levels tested
  heart rate and ECG: not affected
[6]; 1 hour after the second daily dose, vehicle 115
  mean arterial blood pressure: 93 mmHg
[6]; 5 hours after the first daily dosing, vehicle 127
  mean arterial blood pressure: 91 mmHg
[7]
  respiratory parameters: Neither toxicologically relevant effects in respiratory parameters were observed at week 4

## COc1cc2nccc(Oc3ccc(NC(=O)C4(C(=O)Nc5ccc(F)cc5)CC4)cc3)c2cc1OC [cabozantinib, reference compound]
[8]
  IC50: 0.34 µM
